Laboratory results as given in PubChem BioAssay (NCI).
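Protocol summary: plate cells (96-well), add compound at 5 concentrations, incubate 48 h, interpolate endpoints linearly. TGI denotes the concentration required for complete inhibition of growth.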

Experiments:
Experiment in all cases: growth of human tumour cells (NCI), 48 h
DU-145 prostate = tested on: DU-145 prostate
UACC-257 melanoma = tested on: UACC-257 melanoma
EKVX NSCLC = tested on: EKVX NSCLC
KM12 colon = tested on: KM12 colon
SW-620 colon = tested on: SW-620 colon
SNB-75 CNS = tested on: SNB-75 CNS
HOP-92 NSCLC = tested on: HOP-92 NSCLC
T-47D breast = tested on: T-47D breast
SN12C renal = tested on: SN12C renal
MCF7 breast = tested on: MCF7 breast
SF-268 CNS = tested on: SF-268 CNS
786-0 renal = tested on: 786-0 renal
MDA-N = tested on: MDA-N
TK-10 renal = tested on: TK-10 renal
COLO 205 colon = tested on: COLO 205 colon
RXF 393 renal = tested on: RXF 393 renal
HOP-62 NSCLC = tested on: HOP-62 NSCLC
SK-MEL-2 melanoma = tested on: SK-MEL-2 melanoma
UACC-62 melanoma = tested on: UACC-62 melanoma
SK-OV-3 ovarian = tested on: SK-OV-3 ovarian
HCC-2998 colon = tested on: HCC-2998 colon
A549 NSCLC = tested on: A549 NSCLC
SK-MEL-28 melanoma = tested on: SK-MEL-28 melanoma
OVCAR-5 ovarian = tested on: OVCAR-5 ovarian
SK-MEL-5 melanoma = tested on: SK-MEL-5 melanoma
NCI-H23 lung = tested on: NCI-H23 lung
MOLT-4 leukemia = tested on: MOLT-4 leukemia
UO-31 renal = tested on: UO-31 renal
OVCAR-4 ovarian = tested on: OVCAR-4 ovarian
SNB-19 CNS = tested on: SNB-19 CNS
IGROV1 ovarian = tested on: IGROV1 ovarian
SF-295 CNS = tested on: SF-295 CNS
RPMI-8226 leukemia = tested on: RPMI-8226 leukemia
HS 578T breast = tested on: HS 578T breast
M14 melanoma = tested on: M14 melanoma
HCT-116 colon = tested on: HCT-116 colon
U251 CNS = tested on: U251 CNS
HT29 colon = tested on: HT29 colon
MDA-MB-231 breast = tested on: MDA-MB-231 breast
MALME-3M melanoma = tested on: MALME-3M melanoma
CAKI-1 renal = tested on: CAKI-1 renal
ACHN renal = tested on: ACHN renal
HL-60(TB) leukemia = tested on: HL-60(TB) leukemia
A498 renal = tested on: A498 renal
K-562 leukemia = tested on: K-562 leukemia
MDA-MB-435 = tested on: MDA-MB-435
NCI/ADR-RES ovarian = tested on: NCI/ADR-RES ovarian
NCI-H522 lung = tested on: NCI-H522 lung
LOX IMVI melanoma = tested on: LOX IMVI melanoma
BT-549 breast = tested on: BT-549 breast
NCI-H460 lung = tested on: NCI-H460 lung
PC-3 prostate = tested on: PC-3 prostate

With CCCNC(=O)N1CC(CN2CCN(c3ccccc3)CC2)O/C1=N/C(=O)Nc1ccccc1 (configuration not stated) the TGI (DU-145 prostate) was > 100 µM, the TGI (UACC-257 melanoma) was > 100 µM and the TGI (EKVX NSCLC) was > 100 µM. For the same compound, the TGI (KM12 colon) was > 100 µM, the TGI (SW-620 colon) was > 100 µM and the TGI (SNB-75 CNS) was > 100 µM. For the same compound, the TGI (HOP-92 NSCLC) was > 100 µM, the TGI (T-47D breast) was > 100 µM and the TGI (SN12C renal) was > 100 µM. For the same compound, the TGI (MCF7 breast) was > 100 µM, the TGI (SF-268 CNS) was > 100 µM and the TGI (786-0 renal) was > 100 µM. The TGI (MDA-N) was > 100 µM, the TGI (TK-10 renal) was > 100 µM and the TGI (COLO 205 colon) was 74.1 µM. For the same compound, the TGI (RXF 393 renal) was > 100 µM, the TGI (HOP-62 NSCLC) was > 100 µM and the TGI (SK-MEL-2 melanoma) was > 100 µM. For the same compound, the TGI (UACC-62 melanoma) was > 100 µM, the TGI (SK-OV-3 ovarian) was > 100 µM and the TGI (HCC-2998 colon) was > 100 µM. The TGI (A549 NSCLC) was > 100 µM, the TGI (SK-MEL-28 melanoma) was > 100 µM and the TGI (OVCAR-5 ovarian) was > 100 µM. For the same compound, the TGI (SK-MEL-5 melanoma) was 94.1 µM, the TGI (NCI-H23 lung) was > 100 µM and the TGI (MOLT-4 leukemia) was > 100 µM. The TGI (UO-31 renal) was > 100 µM, the TGI (OVCAR-4 ovarian) was > 100 µM and the TGI (SNB-19 CNS) was > 100 µM. For the same compound, the TGI (IGROV1 ovarian) was > 100 µM, the TGI (SF-295 CNS) was > 100 µM and the TGI (RPMI-8226 leukemia) was > 100 µM. The TGI (HS 578T breast) was > 100 µM, the TGI (M14 melanoma) was > 100 µM and the TGI (HCT-116 colon) was > 100 µM. For the same compound, the TGI (U251 CNS) was > 100 µM, the TGI (HT29 colon) was > 100 µM and the TGI (MDA-MB-231 breast) was > 100 µM. The TGI (MALME-3M melanoma) was > 100 µM, the TGI (CAKI-1 renal) was > 100 µM and the TGI (ACHN renal) was > 100 µM. For the same compound, the TGI (HL-60(TB) leukemia) was > 100 µM, the TGI (A498 renal) was > 100 µM and the TGI (K-562 leukemia) was > 100 µM. For the same compound, the TGI (MDA-MB-435) was > 100 µM, the TGI (NCI/ADR-RES ovarian) was > 100 µM and the TGI (NCI-H522 lung) was > 100 µM. For the same compound, the TGI (LOX IMVI melanoma) was > 100 µM, the TGI (BT-549 breast) was > 100 µM and the TGI (NCI-H460 lung) was > 100 µM. The TGI (PC-3 prostate) was > 100 µM.
